Laboratory results from article PMC13185819, “De Novo Multi‐Mechanism Antimicrobial Peptide Design via Multimodal Deep Learning” (Advanced Science, 2026).
Converted amounts (≈) assume the structure as drawn. Residues, ends and D or L forms follow the SMILES beside them.

Assays:
[1] = tested on: intact or abraded skin of mice; experiment: Mouse skin tolerance test; assay type: in vivo, C57BL/6J mice; conditions: for skin irritation or pathology at 72 h post-treatment: shaved intact and abraded skin, 10 µL of 150 mg/mL
Experimental: For the skin local safety study, the intact or abraded skin of the mice was treated once with antimicrobial peptides QLX‐3DV‐1, QLX‐3DV‐2, or water. In brief, ten‐week‐old female C57BL/6J mice (n = 8 for each group) were anesthetized using isoflurane and administered buprenorphine as an analgesic at 0.1 mg/kg intraperitoneally. After removing the back hair of the mice, the skin on the back of the mice in the scratch group was sanded with 60‐grit sandpaper until the skin oozed blood. The intact skin group received no additional treatment except shaving. 10 µL QLX‐3DV‐1 and QLX‐3DV‐2 (150 mg/mL) or water was applied uniformly over the intact or abraded skin to assess the acute dermal toxicity. Groups without any addition served as untreated controls. Weight changes were recorded over 72 h. Histopathological characteristics of treated skin detected by H&E staining on the third day.

[2] = tested on: 25 strains of ESKAPE MDROs; assay type: cell-based; conditions: lowest value over gram-negative strains
Procedure, shortened: (§1)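 Broth microdilution per CLSI in Mueller–Hinton broth with serial twofold peptide dilutions. Inoculum from overnight 37°C colonies adjusted to McFarland 0.5 and diluted to 1 × 10^6 CFU/mL before mixing 1:1 with peptide. Three independent replicates.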

[3] = tested on: mice; experiment: Systemic safety, intraperitoneal injection; assay type: in vivo, C57BL/6J mice; conditions: for survival rate over 96 h: intraperitoneal injection, 60 mg/kg, n = 8; for hepatorenal toxicity (H&E of liver and kidney): intraperitoneal, 40 mg/kg, 12 h
Experimental: The 10‐week‐old female C57BL/6J mice were randomly divided into three groups (n = 8 for each group). […] Mouse survival was monitored for 96 h. For pathologic analysis, mouse liver and kidneys were obtained by surgery for hematoxylin‐eosin (HE) staining after treatment with 40 mg/kg QLX‐3DV‐1 and QLX‐3DV‐2 for 12 h.

[4] = tested on: S. aureus CMCC26003; assay type: cell-based
Procedure, shortened: as §1

[5] = tested on: S. aureus CICC25138; assay type: cell-based
Procedure, shortened: as §1

[6] = tested on: E. faecium 21; assay type: cell-based
Procedure, shortened: as §1

[7] = tested on: E. faecium 1042; assay type: cell-based
Procedure, shortened: as §1

[8] = tested on: K. pneumoniae 7713; assay type: cell-based
Procedure, shortened: as §1

[9] = tested on: E.coli 208; assay type: cell-based
Procedure, shortened: as §1

[10] = tested on: S. aureus ATCC33592; assay type: cell-based
Procedure, shortened: as §1

[11] = tested on: E.coli CMCC44102; assay type: cell-based
Procedure, shortened: as §1

[12] = tested on: E.coli 110; assay type: cell-based
Procedure, shortened: as §1

[13] = tested on: human red blood cells (hRBCs); experiment: Hemolysis assay; assay type: cell-based; conditions: human red blood cells 8% (v/v) in PBS pH 7.4, 1 h, 37°C, absorbance 570 nm; linear interpolation
Experimental: Human red blood cells (hRBCs) were purchased from Xiamen Immocell Biotechnology Co., Ltd. For the hemolysis test, fresh human red blood cells (hRBCs) were washed three times with PBS (35 mM phosphate buffer, 0.15 M NaCl, pH 7.4) by centrifugation for 5 min at 1000 × g and resuspended in PBS. Then, 50 µL peptide solutions (serial twofold dilutions in PBS) were added to 100 µL of hRBC suspension [8% (v/v) in final] in PBS and incubated for 1 h at 37°C. Samples were centrifuged at 1000 × g for 5 min, and hemoglobin release was monitored by measuring the supernatant absorbance at 570 nm in a flat‐bottom 96‐well plate (Servicebio). hRBCs in PBS or 0.1% Triton X‐100 were used as the negative and positive controls, respectively.

[14] = tested on: S. aureus CMCC26003; experiment: Drug resistance assay, serial passaging; assay type: cell-based; conditions: sub-MIC (1/2 × MIC), n = 3; for passages after which S. aureus developed resistance: passaged every 24 h, resistance = greater than fourfold MIC increase
Experimental: For comparison, the development of resistance to the clinically relevant antibiotics clindamycin (Macklin) and vancomycin (Macklin) was determined. The evolution of resistance by S. aureus CMCC26003 to antibiotics and the peptide was monitored for 20 days of serial passaging in liquid NB. Cells were passaged every 24 h. Briefly, 1 mL of bacterial suspension (1 × 10^6 CFU/mL) was incubated with antibiotics or peptide solution at half the minimal inhibitory concentration at 37°C, 200 rpm. After each incubation period, a new inoculum of 10^6 cells was prepared for inoculation of the following passage containing fresh medium and increased doses of the antimicrobial agent. During the 20 days of serial passaging, the minimum inhibitory concentration of antibiotics or peptides to each generation of cells was determined. The MIC determination method was as previously described. The development of bacterial resistance was defined as a greater than fourfold increase in MICs compared to the initial MICs.

Structure (SMILES) | Gross pathology findings (Number of mice) ([1]; mouse, in vivo) | Histopathological findings, Fibrosis in the dermis (Number of mice) ([1]; mouse, in vivo) | Histopathological findings, Lymphohistiocytic infiltration in the dermis (Number of mice) ([1]; mouse, in vivo) | Skin irritation, Erythema formation (Number of mice) ([1]; mouse, in vivo) | skin irritation or pathology at 72 h post-treatment [1] | MIC against gram-negative strains, as low as [2] [µg/mL] | survival rate over 96 h [3] [%] | hepatorenal toxicity (H&E of liver and kidney) [3] | 25% hemolytic concentration (HC25) [13] [µg/mL] | passages after which S. aureus developed resistance [14] [passages] | also measured
CC[C@H](C)[C@H](NC(=O)[C@H](CCCCN)NC(=O)[C@H](Cc1c[nH]c2ccccc12)NC(=O)[C@@H](N)CCCCN)C(=O)N[C@@H](CCCCN)C(=O)N[C@@H](Cc1c[nH]c2ccccc12)C(=O)N1CCC[C@H]1C(=O)N[C@@H](CO)C(=O)N[C@@H](CCCNC(=N)N)C(=O)N[C@@H](Cc1c[nH]c2ccccc12)C(=O)N[C@@H](Cc1ccccc1)C(=O)N[C@@H](CCCNC(=N)N)C(=O)N[C@@H](CCCCN)C(=O)N[C@@H](CC(C)C)C(N)=O [QLX-3DV-1] (H-KWKIKWPSRWFRKL-NH2) | 0 / 8 | 0 / 8 | 0 / 8 | 0 / 8 | no signs of skin irritation or pathology | 4 (≈ 2.04 µM) | 100 | no significant hepatorenal toxicity | – | – | –
CC[C@H](C)[C@H](NC(=O)[C@H](CCCCN)NC(=O)[C@H](Cc1c[nH]c2ccccc12)NC(=O)[C@@H](N)CCCCN)C(=O)N[C@@H](CCCCN)C(=O)N[C@@H](Cc1c[nH]c2ccccc12)C(=O)N1CCC[C@H]1C(=O)N[C@H](C(=O)N[C@@H](CCCNC(=N)N)C(=O)N[C@@H](Cc1c[nH]c2ccccc12)C(=O)N[C@@H](Cc1ccccc1)C(=O)N[C@@H](CCCNC(=N)N)C(=O)N[C@@H](CCCCN)C(=O)N[C@@H](CC(C)C)C(N)=O)C(C)C [QLX-3DV-2] (H-KWKIKWPVRWFRKL-NH2) | 0 / 8 | 0 / 8 | 0 / 8 | 0 / 8 | no signs of skin irritation or pathology | 4 (≈ 2.03 µM) | – | no significant hepatorenal toxicity | – | – | Skin irritation, Edema formation (Number of mice) ([1]; mouse, in vivo): 0 / 8
CC[C@H](C)[C@H](NC(=O)[C@H](CCSC)NC(=O)[C@H](Cc1c[nH]c2ccccc12)NC(=O)[C@@H](N)CCCCN)C(=O)N[C@@H](CCCCN)C(=O)N[C@@H](Cc1c[nH]c2ccccc12)C(=O)N1CCC[C@H]1C(=O)N[C@@H](CO)C(=O)N[C@@H](CC(N)=O)C(=O)N[C@@H](Cc1c[nH]c2ccccc12)C(=O)N[C@@H](Cc1ccccc1)C(=O)N[C@H](C(=O)N[C@@H](CCSC)C(=O)N[C@@H](CC(C)C)C(N)=O)[C@@H](C)O [QLX-227-1] (H-KWMIKWPSNWFTML-NH2) | – | – | – | – | – | – | – | – | 100.92 | – | MIC (μg/mL) S. aureus CMCC26003 [4]: 32 µg/mL (≈ 17.1 µM); MIC (μg/mL) S. aureus CICC25138 [5]: 64 µg/mL (≈ 34.3 µM); MIC (μg/mL) E. faecium 21 [6]: 16 µg/mL (≈ 8.57 µM); MIC (μg/mL) E. faecium 1042 [7]: 32 µg/mL (≈ 17.1 µM); MIC (μg/mL) K. pneumoniae 7713 [8]: 64 µg/mL (≈ 34.3 µM); MIC (μg/mL) E.coli 208 [9]: 16 µg/mL (≈ 8.57 µM); MIC (μg/mL) S. aureus ATCC33592 [10]: 64 µg/mL (≈ 34.3 µM); MIC (μg/mL) E.coli CMCC44102 [11]: 32 µg/mL (≈ 17.1 µM); MIC (μg/mL) E.coli 110 [12]: 32 µg/mL (≈ 17.1 µM)
CC(=O)N[C@@H](CC(C)C)C(=O)N[C@@H](CCCCN)C(=O)N[C@@H](CCCNC(=N)N)C(=O)N[C@H](C(=O)N[C@@H](Cc1c[nH]c2ccccc12)C(=O)N[C@@H](CCCCN)C(=O)N[C@@H](CCCNC(=N)N)C(=O)N[C@H](C(=O)N[C@@H](Cc1ccccc1)C(=O)N[C@@H](CCCCN)C(=O)N[C@@H](CC(C)C)C(=O)N[C@@H](CC(C)C)C(=O)N[C@@H](CCCCN)C(=O)N[C@@H](CCCNC(=N)N)C(=O)N[C@@H](Cc1ccc(O)cc1)C(=O)N[C@@H](Cc1c[nH]c2ccccc12)C(=O)N[C@@H](CCCNC(=N)N)C(=O)N[C@@H](CCC(N)=O)C(=O)N[C@@H](CC(C)C)C(=O)N[C@@H](CCCCN)C(=O)N[C@@H](CCCCN)C(=O)N1CCC[C@H]1C(=O)N[C@H](C(=O)N[C@@H](CCCNC(=N)N)C(N)=O)C(C)C)C(C)C)C(C)C [SAAP-148, reference compound] (Ac-LKRVWKRVFKLLKRYWRQLKKPVR-NH2) | – | – | – | – | – | – | 50 | – | 26.89 | – | –
CCC[C@@H]1C[C@@H](C(=O)N[C@@H]([C@H]2O[C@H](SC)[C@H](O)[C@@H](O)[C@H]2O)[C@H](C)Cl)N(C)C1 [clindamycin] | – | – | – | – | – | – | – | – | – | 15 | –
CN[C@H](CC(C)C)C(=O)N[C@H]1C(=O)N[C@@H](CC(N)=O)C(=O)N[C@H]2C(=O)N[C@H]3C(=O)N[C@H](C(=O)N[C@H](C(=O)O)c4cc(O)cc(O)c4-c4cc3ccc4O)[C@H](O)c3ccc(c(Cl)c3)Oc3cc2cc(c3O[C@@H]2O[C@H](CO)[C@@H](O)[C@H](O)[C@H]2O[C@H]2C[C@](C)(N)[C@H](O)[C@H](C)O2)Oc2ccc(cc2Cl)[C@H]1O [vancomycin] | – | – | – | – | – | – | – | – | – | 18 | factor of decrease in susceptibility by the 20th passage ([14]; 20 passages): 64
